Results from US5658883A, “Biologically active TGF-β1 peptides” (Celtrix Pharmaceuticals, Inc., priority 1995, dated 1997).
Like-named read-outs stand apart in the source and are kept apart here. Bridge positions count the residues as written; N and C are the ends. Ends that are not written are not given here. Peptide text beside a SMILES is read from it. I, II: the chains in the order shown.

Assays:
[1] = tested on: TGF-β receptor
Experimental: (§1) Rat muscle myoblasts (L6, American Type Culture Collection) were plated in 6-well culture plates and cultured in DMEM supplemented with 100 units/ml penicillin, 100 μg/ml streptomycin, 2 mM L-glutamine, 10% FBS until the cells were 70-90% confluent. Medium was aspirated from the wells; and 1 ml of ice cold 20 mM glycine, 135 mM NaCl, pH 3.0 was added to each well for 2 min. The buffer was aspirated and each well was rinsed 2 times with 1 ml of DMEM, 25 mM Hepes, pH 7.4, 0.1% BSA. […] Radiolabeled TGF-β samples (500 μl ) either without unlabeled TGF-β or with excess unlabeled TGF-β (20-25 nM) were prepared and added to other wells. After 1 hr incubation at room temperature, each well was rinsed 2 times with 1 ml of Hank's balanced saline solution, 0.1% BSA. To each well, 500 μl of 1% Triton X-100, 10% glycerol, 20 mM Hepes, pH 7.4, 0.01% BSA was added and incubated at 37° C. with rotation for 30 min to lyse the cells. Samples were transferred into gamma-counting vials and counted for 1 min each.

[2] = tested on: Mink lung epithelial cells (Mv1Lu CCL64); assay: Mink lung epithelial cell proliferation inhibition assay; assay type: cell-based; conditions: for ED50 (half-maximal inhibition of cell proliferation): 4 days, acid phosphatase readout
Experimental: TGF-β is known to inhibit proliferation of mink lung epithelial cells. The mink lung epithelial cell assay was thus used to test the ability of the peptides to mimic the biological activity of TGF-β. Mink lung epithelial cells (ATCC, Rockville, Md., Mv1Lu CCL64) were plated at 0.5-1.0×10^6 cells/plate in 100 mm culture plates and grown in Eagle's minimal essential medium (MEM) supplemented with 50 units/ml penicillin, 50 μg/ml streptomycin, nonessential amino acids, L-glutamine, and 10% fetal bovine serum (FBS). Cells were passaged while the cell density was subconfluent. Cells were detached with trypsin, collected by centrifugation at 800×g for 2 min, and resuspended in the culture medium at 20,000 cells/ml. The cells were plated in 96-well microtiter plates at 1000 cells (50 μl)/well. Peptides TGF-β116-31, TGF-β116-47, TGF-β216-31, TGF-β216-47 in monomeric and dimeric forms were lyophilized in the presence of sterile bovine serum albumin (BSA) carrier. Samples (50 μl) of the peptides were dissolved in the cell culture medium and added to the wells in triplicate. Recombinant human TGF-β2 was used as the standard. The plates were incubated under a 5% CO2 /95% (V/V) air atmosphere at 37° C. for 4 days. The number of cells/well in this assay is proportional to the activity of the constitutively expressed enzyme, acid phosphatase. To measure acid phosphatase activity, the wells were rinsed with phosphate-buffered saline (PBS), filled with 100 μl of 0.1M sodium acetate, pH 5.5/0.1% Triton X-100/100 mM p-nitrophenyl phosphate, and the plates were incubated at 37° C. for 2 hr. Ten μl of 1.0N NaOH was added to each well, and after 20 min at room temperature, the absorbance at 405 nm was measured.

[3] = tested on: murine thymocytes; assay: Inhibition of murine thymocyte proliferation (3H-thymidine incorporation); assay type: cell-based, C3H/HeJ mice
Experimental: In order to determine the effect of the peptides on proliferation of cell types other than mink lung epithelial cells, murine thymocytes were exposed to the peptides. Proliferation was measured by determining the amount of ^3 H-thymidine incorporated into the thymocyte DNA in response to the peptides. The cell culture assay was performed as described by Ellingsworth et al., Cell. Immunol., 114:41-54 (1988). Single-cell suspensions of thymocytes were prepared from 4 to 8 week old C3H/HeJ mice and the cells were suspended in Eagle's MEM supplemented with 5% fetal calf serum (FCS), 100 units/ml penicillin, 100 μg/ml streptomycin, 2 mM L-glutamine and 50 μM β-mercaptoethanol to 6.66×10^6 cells/ml. The thymocytes were plated into 96-well microtiter plates at 10^6 cells/well (150 μl). The cells were activated with 1.0 μg/ml of phytohemagglutinin and 8 units/ml of interleukin-1 (IL-1) (Boehringer Mannheim, Indianapolis, Ind.). […] The cells were incubated at 37° C. for 72 hr in a humidified incubator in 5% CO2 -95% air atmosphere. The cells were pulsed with 0.5 μCi/well of ^3 H-thymidine 24 hours prior to cell harvest. The thymocytes were harvested onto glass fiber filters and dried. The amount of ^3 H-thymidine incorporation was determined by liquid scintillation counting method.

[4] = tested on: TGF-β receptor; conditions: for competing against the binding of 125I-TGF-β1: at concentrations of up to 30 μM
Experimental: as §1

[5] = tested on: tumor cell proliferation; conditions: in vitro assays, generally observed; cited from earlier work
[6] = 25 pM 125I-TGF-β2, L6 cells, 1 hr room temperature
[7] = PHA and IL-1 activated thymocytes, 72 hr

For “CLRPLYIDFKRDLGWKWIHEPKGYNANFCAGA [TGF-β216-47 monomer]”, the “ED50 (competition against binding of 125I-TGF-β2)” value [1, 6] was 30000 nM, the “competing against the binding of 125I-TGF-β2” value ([1]; at concentrations of up to 30 μM) was “either inactive or weakly active” and the “ED50 / activity in words” value [2] was “not active”.

For CLRPLYIDFKRDLGWK [TGF-β216-31], the “activity in thymocyte proliferation assay” value [3] was “inactive”, the “ED50 (competition against binding of 125I-TGF-β2), in words” value ([1]; 25 pM 125I-TGF-β2, L6 cells) was “inactive” and the “ED50 / activity in words” value [2] was “inactive”.

In the case of “CVRQLYIDFRKDLGWKWIHEPKGYHANFCLGP [TGF-β116-47 trimer] (cysteine pairing not given here; also: trimer)”, the “ED50 (half-maximal inhibition of cell proliferation)” value [2] is reported as 32.7 nM.

In the case of “TGF-β1: full length transforming growth factor β1”, the “ED50 (competition against binding of 125I-TGF-β1)” value ([4]; 25 pM 125I-TGF-β1, L6 cells, 1 hr room temperature) is reported as 0.01 to 0.03 nM and the Kd ([4]; read-out: apparent dissociation constant, estimated from competitive binding data, 125I-TGF-β1) is reported as 0.01 to 0.03 nM.

For `CC[C@H](C)[C@H](NC(=O)[C@H](Cc1ccc(O)cc1)NC(=O)[C@H](CC(C)C)NC(=O)[C@@H]1CCCN1C(=O)[C@H](CCCNC(=N)N)NC(=O)[C@H](CC(C)C)NC(=O)[C@@H](N)CSSC[C@H](N)C(=O)N[C@@H](CC(C)C)C(=O)N[C@@H](CCCNC(=N)N)C(=O)N1CCC[C@H]1C(=O)N[C@@H](CC(C)C)C(=O)N[C@@H](Cc1ccc(O)cc1)C(=O)N[C@H](C(=O)N[C@@H](CC(=O)O)C(=O)N[C@@H](Cc1ccccc1)C(=O)N[C@@H](CCCCN)C(=O)N[C@@H](CCCNC(=N)N)C(=O)N[C@@H](CC(=O)O)C(=O)N[C@@H](CC(C)C)C(=O)NCC(=O)N[C@@H](Cc1c[nH]c2ccccc12)C(=O)N[C@@H](CCCCN)C(=O)O)[C@@H](C)CC)C(=O)N[C@@H](CC(=O)O)C(=O)N[C@@H](Cc1ccccc1)C(=O)N[C@@H](CCCCN)C(=O)N[C@@H](CCCNC(=N)N)C(=O)N[C@@H](CC(=O)O)C(=O)N[C@@H](CC(C)C)C(=O)NCC(=O)N[C@@H](Cc1c[nH]c2ccccc12)C(=O)N[C@@H](CCCCN)C(=O)O` [TGF-β216-31 dimer] (I: H-CLRPLYIDFKRDLGWK-OH / II: H-CLRPLYIDFKRDLGWK-OH; disulfide I:1-II:1), the “ED50 (competition against binding of 125I-TGF-β2)” value [1] was 30000 nM.

In the case of `CC[C@H](C)[C@H](NC(=O)[C@H](Cc1ccc(O)cc1)NC(=O)[C@H](CC(C)C)NC(=O)[C@H](CCC(N)=O)NC(=O)[C@H](CCCNC(=N)N)NC(=O)[C@@H](NC(=O)[C@@H](N)CSSC[C@H](N)C(=O)N[C@H](C(=O)N[C@@H](CCCNC(=N)N)C(=O)N[C@@H](CCC(N)=O)C(=O)N[C@@H](CC(C)C)C(=O)N[C@@H](Cc1ccc(O)cc1)C(=O)N[C@H](C(=O)N[C@@H](CC(=O)O)C(=O)N[C@@H](Cc1ccccc1)C(=O)N[C@@H](CCCNC(=N)N)C(=O)N[C@@H](CCCCN)C(=O)N[C@@H](CC(=O)O)C(=O)N[C@@H](CC(C)C)C(=O)NCC(=O)N[C@@H](Cc1c[nH]c2ccccc12)C(=O)N[C@@H](CCCCN)C(=O)O)[C@@H](C)CC)C(C)C)C(C)C)C(=O)N[C@@H](CC(=O)O)C(=O)N[C@@H](Cc1ccccc1)C(=O)N[C@@H](CCCNC(=N)N)C(=O)N[C@@H](CCCCN)C(=O)N[C@@H](CC(=O)O)C(=O)N[C@@H](CC(C)C)C(=O)NCC(=O)N[C@@H](Cc1c[nH]c2ccccc12)C(=O)N[C@@H](CCCCN)C(=O)O` [TGF-β116-31 dimer] (I: H-CVRQLYIDFRKDLGWK-OH / II: H-CVRQLYIDFRKDLGWK-OH; disulfide I:1-II:1), the “ED50 (competition against binding of 125I-TGF-β1)” value [4] is reported as 10000 to 15000 nM and the “ED50 (competition against binding of 125I-TGF-β2)” value [1] is reported as 10000 to 15000 nM.

In the case of TGF-β, the “concentration at which saturation is achieved” value [5] is given as 10 ng/mL and the “concentration for 50% inhibition of tumor cell proliferation” value [5] is given as roughly 0.2 ng/mL.

For “TGF-β2: full length transforming growth factor β2, used as the standard”, the “ED50 (inhibition of 3H-thymidine incorporation)” value [3, 7] was “approximately 4 pM”.

In the case of “CVRQLYIDFRKDLGWKWIHEPKGYHANFCLGP [TGF-β116-47 monomer]”, the “ED50 (competition against binding of 125I-TGF-β1), in words” value ([4]; 25 pM 125I-TGF-β1, L6 cells) is reported as “not active”, the “competing against the binding of 125I-TGF-β1” value [4] is reported as “either inactive or weakly active” and the “ED50 / activity in words” value [2] is reported as “some activity”. For the same molecule, the “ED50 (half-maximal inhibition of cell proliferation)” value [2] was 1000 nM.

B1: CLRPLYIDFKRDLGWKWIHEPKGYNANFCAGA [TGF-β216-47 dimer] (peptide)
chain 1: CLRPLYIDFKRDLGWKWIHEPKGYNANFCAGA
chain 2: CLRPLYIDFKRDLGWKWIHEPKGYNANFCAGA
modifications: disulfide (positions not given here); also: disulfide-bonded homodimer, Cys pairing not given here
For B1, the “ED50 (inhibition of thymocyte proliferation)” value [3, 7] was 57 nM, the “ED50 (competition against binding of 125I-TGF-β2)” value [1, 6] was 3000 nM and the Kd ([1]; read-out: apparent dissociation constant, estimated from competitive binding data, 125I-TGF-β2) was roughly 3000 nM. For the same molecule, the “ED50 (half-maximal inhibition of cell proliferation)” value [2] was 4 to 14 nM and the “fold more activity than dimerized TGF-β116-47” value ([2]; from ED50) was 11-38 fold.

B2: CVRQLYIDFRKDLGWKWIHEPKGYHANFCLGP [TGF-β116-47 dimer] (peptide)
chain 1: CVRQLYIDFRKDLGWKWIHEPKGYHANFCLGP
chain 2: CVRQLYIDFRKDLGWKWIHEPKGYHANFCLGP
modifications: disulfide (positions not given here); also: disulfide-bonded homodimer, Cys pairing not given here
With B2 the “ED50 (competition against binding of 125I-TGF-β1), in words” value ([4]; 25 pM 125I-TGF-β1, L6 cells) was “not active” and the “competing against the binding of 125I-TGF-β1” value [4] was “either inactive or weakly active”.
